# Reference: PubChem BioAssay (NCI)
#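 These data come from cells grown in 96-well plates and exposed to compound for 48 hours at five concentrations. TGI denotes the concentration required for complete inhibition of growth.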
# What was measured:
# Assay in all cases: DTP human tumour cell line panel, 48 h
# [1] = system: 786-0 renal
# [2] = system: A498 renal
# [3] = system: A549 NSCLC
# [4] = system: ACHN renal
# [5] = system: BT-549 breast
# [6] = system: CAKI-1 renal
# [7] = system: CCRF-CEM leukemia
# [8] = system: COLO 205 colon
# [9] = system: DU-145 prostate
# [10] = system: EKVX NSCLC
# [11] = system: HCC-2998 colon
# [12] = system: HCT-116 colon
# [13] = system: HCT-15 colon
# [14] = system: HL-60(TB) leukemia
# [15] = system: HOP-62 NSCLC
# [16] = system: HOP-92 NSCLC
# [17] = system: HS 578T breast
# [18] = system: HT29 colon
# [19] = system: IGROV1 ovarian
# [20] = system: K-562 leukemia
# [21] = system: KM12 colon
# [22] = system: LOX IMVI melanoma
# [23] = system: M14 melanoma
# [24] = system: MALME-3M melanoma
# [25] = system: MCF7 breast
# [26] = system: MDA-MB-231 breast
# [27] = system: MDA-MB-435
# [28] = system: MDA-N
# [29] = system: MOLT-4 leukemia
# [30] = system: NCI-H23 lung
# [31] = system: NCI-H460 lung
# [32] = system: NCI-H522 lung
# [33] = system: NCI/ADR-RES ovarian
# [34] = system: OVCAR-3 ovarian
# [35] = system: OVCAR-4 ovarian
# [36] = system: OVCAR-5 ovarian
# [37] = system: OVCAR-8 ovarian
# [38] = system: PC-3 prostate
# [39] = system: RPMI-8226 leukemia
# [40] = system: RXF 393 renal
# [41] = system: SF-268 CNS
# [42] = system: SF-295 CNS
# [43] = system: SF-539 CNS
# [44] = system: SK-MEL-2 melanoma
# [45] = system: SK-MEL-28 melanoma
# [46] = system: SK-MEL-5 melanoma
# [47] = system: SK-OV-3 ovarian
# [48] = system: SN12C renal
# [49] = system: SNB-19 CNS
# [50] = system: SNB-75 CNS
# [51] = system: SR leukemia
# [52] = system: SW-620 colon
# [53] = system: T-47D breast
# [54] = system: TK-10 renal
# [55] = system: U251 CNS
# [56] = system: UACC-257 melanoma
# [57] = system: UACC-62 melanoma
# [58] = system: UO-31 renal
# [59] = system: NCI-H226 lung
compound,measurement,setting,value
Cc1csc2c(P(=O)(OC(C)C)OC(C)C)c(-c3ccccc3)cn12,TGI,[1],30.7 µM
same,TGI,[2],34.1 µM
same,TGI,[3],32.4 µM
same,TGI,[4],28.3 µM
same,TGI,[5],36 µM
same,TGI,[6],43.4 µM
same,TGI,[7],37.2 µM
same,TGI,[8],37.8 µM
same,TGI,[9],32.9 µM
same,TGI,[10],32.5 µM
same,TGI,[11],28.5 µM
same,TGI,[12],27.4 µM
same,TGI,[13],31.6 µM
same,TGI,[14],45.9 µM
same,TGI,[15],33.1 µM
same,TGI,[16],33.5 µM
same,TGI,[17],39.7 µM
same,TGI,[18],29.2 µM
same,TGI,[19],31.9 µM
same,TGI,[20],45.7 µM
same,TGI,[21],30.6 µM
same,TGI,[22],27.3 µM
same,TGI,[23],34.7 µM
same,TGI,[24],36.1 µM
same,TGI,[25],34.3 µM
same,TGI,[26],41.1 µM
same,TGI,[27],37.7 µM
same,TGI,[28],32.5 µM
same,TGI,[29],31.4 µM
same,TGI,[30],37.9 µM
same,TGI,[31],30.1 µM
same,TGI,[32],30.7 µM
same,TGI,[33],36.2 µM
same,TGI,[34],28.2 µM
same,TGI,[35],33 µM
same,TGI,[36],28.8 µM
same,TGI,[37],33 µM
same,TGI,[38],28.7 µM
same,TGI,[39],40.7 µM
same,TGI,[40],33.7 µM
same,TGI,[41],32 µM
same,TGI,[42],31.1 µM
same,TGI,[43],32.9 µM
same,TGI,[44],32.5 µM
same,TGI,[45],32.9 µM
same,TGI,[46],29.7 µM
same,TGI,[47],33 µM
same,TGI,[48],32.1 µM
same,TGI,[49],28.4 µM
same,TGI,[50],27.7 µM
same,TGI,[51],36.7 µM
same,TGI,[52],35.8 µM
same,TGI,[53],16.2 µM
same,TGI,[54],23.7 µM
same,TGI,[55],29.5 µM
same,TGI,[56],27.8 µM
same,TGI,[57],20 µM
same,TGI,[58],31.8 µM
COc1ccc2c(c1)/C(=C(\C(Cl)=C(Cl)Cl)[N+](=O)[O-])N2,TGI,[1],> 100 µM
same,TGI,[2],> 100 µM
same,TGI,[3],> 100 µM
same,TGI,[4],> 100 µM
same,TGI,[5],> 100 µM
same,TGI,[6],> 100 µM
same,TGI,[7],> 100 µM
same,TGI,[8],> 100 µM
same,TGI,[9],> 100 µM
same,TGI,[10],> 100 µM
same,TGI,[11],> 100 µM
same,TGI,[12],> 100 µM
same,TGI,[13],> 100 µM
same,TGI,[14],> 100 µM
same,TGI,[15],> 100 µM
same,TGI,[16],> 100 µM
same,TGI,[17],> 100 µM
same,TGI,[18],> 100 µM
same,TGI,[19],> 100 µM
same,TGI,[20],> 100 µM
same,TGI,[21],> 100 µM
same,TGI,[22],> 100 µM
same,TGI,[23],> 100 µM
same,TGI,[24],> 100 µM
same,TGI,[25],> 100 µM
same,TGI,[26],> 100 µM
same,TGI,[27],> 100 µM
same,TGI,[28],> 100 µM
same,TGI,[29],97.1 µM
same,TGI,[59],85.7 µM
same,TGI,[30],> 100 µM
same,TGI,[31],> 100 µM
same,TGI,[32],87 µM
same,TGI,[33],> 100 µM
same,TGI,[34],> 100 µM
same,TGI,[35],> 100 µM
same,TGI,[36],> 100 µM
same,TGI,[37],> 100 µM
same,TGI,[38],> 100 µM
same,TGI,[40],> 100 µM
same,TGI,[41],> 100 µM
same,TGI,[42],> 100 µM
same,TGI,[45],> 100 µM
same,TGI,[46],> 100 µM
same,TGI,[47],> 100 µM
same,TGI,[48],> 100 µM
same,TGI,[49],> 100 µM
same,TGI,[50],> 100 µM
same,TGI,[51],49.3 µM
same,TGI,[52],> 100 µM
same,TGI,[53],> 100 µM
same,TGI,[54],> 100 µM
same,TGI,[55],> 100 µM
same,TGI,[56],> 100 µM
same,TGI,[57],> 100 µM
same,TGI,[58],> 100 µM
